Our source for the Activity values is ChEMBL document CHEMBL1144105, “Antioxidant principles from Ephemerantha lonchophylla” (J Nat Prod, 1999).

The structures appear in SMILES notation.

The nature of the assay: Antioxidant activity against copper-induced lipid peroxidation in human LDL after 1 hr relative to probucol. In kind it is functional.

On to `Oc1ccc(/C=C/c2cc(O)cc(O)c2)cc1`, for which the Activity is 0.7%.

For the molecule `CC(C)(Sc1cc(C(C)(C)C)c(O)c(C(C)(C)C)c1)Sc1cc(C(C)(C)C)c(O)c(C(C)(C)C)c1`, the Activity is 1%.

`COC1=Cc2ccc3cc(O)ccc3c2C(=O)C1(O)CC(C)=O` (configuration not stated) registered an Activity of 5.3%.

The molecule `COc1cc(CCc2cc(OC)c(O)c(OC)c2)ccc1O` came in with an Activity of 7.8%.

For `COC1=CC(=O)c2ccc3cc(OC)cc(O)c3c2C1=O`, the Activity amounted to 0.4%.

As for `CCOC1=CC(=O)c2ccc3cc(OC)cc(O)c3c2C1=O`, the Activity was determined as 0.2%.

For `COc1cc(CCc2ccc(O)c(OC)c2)cc(OC)c1`, the Activity came to 0.9%.
